Data as given in article PMC3567212 (Biochemistry, 2012).
Changes are numbered by the printed parent chain.

How the values were obtained:
[1] = molecular target: T1, Rhizobium etli pyruvate carboxylase (RePC) (Rhizobium etli, UniProt Q2K340, R472K); assay: coupled spectrophotometric assay; type: biochemical
T1 sequence (Q2K340 1-1154 R472K): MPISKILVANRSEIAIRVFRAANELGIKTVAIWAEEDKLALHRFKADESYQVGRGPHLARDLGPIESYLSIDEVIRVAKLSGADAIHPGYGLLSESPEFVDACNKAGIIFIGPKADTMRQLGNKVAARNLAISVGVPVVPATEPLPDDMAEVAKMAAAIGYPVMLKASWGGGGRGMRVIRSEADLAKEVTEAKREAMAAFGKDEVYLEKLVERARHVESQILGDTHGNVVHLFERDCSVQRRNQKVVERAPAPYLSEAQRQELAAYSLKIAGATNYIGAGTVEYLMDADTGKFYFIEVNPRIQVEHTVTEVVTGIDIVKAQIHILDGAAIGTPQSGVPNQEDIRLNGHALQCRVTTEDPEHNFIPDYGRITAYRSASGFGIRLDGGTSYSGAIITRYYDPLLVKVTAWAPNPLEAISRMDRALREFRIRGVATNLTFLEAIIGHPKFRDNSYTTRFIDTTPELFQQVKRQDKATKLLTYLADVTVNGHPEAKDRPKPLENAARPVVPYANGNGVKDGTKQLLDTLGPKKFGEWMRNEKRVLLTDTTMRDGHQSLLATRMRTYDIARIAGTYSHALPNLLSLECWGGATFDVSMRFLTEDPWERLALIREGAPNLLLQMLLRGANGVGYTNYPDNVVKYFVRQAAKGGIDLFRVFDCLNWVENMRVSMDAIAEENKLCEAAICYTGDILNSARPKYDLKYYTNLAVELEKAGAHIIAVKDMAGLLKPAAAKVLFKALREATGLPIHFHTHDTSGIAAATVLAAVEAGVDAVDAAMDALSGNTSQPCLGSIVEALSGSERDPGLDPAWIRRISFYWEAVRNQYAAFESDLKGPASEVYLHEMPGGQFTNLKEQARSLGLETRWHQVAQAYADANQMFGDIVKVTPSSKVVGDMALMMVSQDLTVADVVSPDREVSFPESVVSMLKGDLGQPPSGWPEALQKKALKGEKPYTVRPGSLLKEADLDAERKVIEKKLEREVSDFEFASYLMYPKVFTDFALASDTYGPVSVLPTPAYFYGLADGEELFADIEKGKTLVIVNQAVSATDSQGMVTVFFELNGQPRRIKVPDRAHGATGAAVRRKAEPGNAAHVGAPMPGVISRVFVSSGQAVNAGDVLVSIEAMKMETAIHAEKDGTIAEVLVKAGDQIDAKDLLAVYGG

[2] = molecular target: T2, Rhizobium etli pyruvate carboxylase (RePC) (Rhizobium etli, UniProt Q2K340, R427S); assay: coupled spectrophotometric assay; type: biochemical
T2 sequence (Q2K340 1-1154 R427S): T1 sequence (Q2K340 1-1154 R472K) with R427S, K472R

Work on `N[C@@H](CC(=O)O)C(=O)O` [L-aspartate] yielded a Ki [1] of 7 ± 1 mM and a Ki [2] of 7 ± 1 mM.
